Results on 13 molecules are retold here after BindingDB's records for doi:10.1021/jm00059a019 (Merck Research Laboratories, 1993).

pIC50: −log10 of the molar value.

For the assay, the target named is T1, Dimer of Gag-Pol polyprotein [489-587] (Human immunodeficiency virus 1, UniProt P12497).
T1 construct: 489-587
Briefly: Protease Inhibition Assay. Particulars: pH 5.5; 30 °C. The method, then: Sensitivity of HIV-1 protease activity to protease inhibitors was determined by a peptide substrate cleavage assay. Protease products were analyzed on a reverse-phase high-pressure liquid chromatograph.
Molecule `CC(C)(C)NC(=O)C1C[C@@H]2CCCC[C@@H]2CN1C[C@@H](O)[C@H](Cc1ccccc1)NC(=O)OCCS(C)(=O)=O` (stereo partly drawn) [2-methanesulfonylethyl N-[(2S,3R)-4-[(4aS,8aS)-3-(tert-butylcarbamoyl)-decahydroisoquinolin-2-yl]-3-hydroxy-1-phenylbutan-2-yl]carbamate] gave a negative-log IC50 (pIC50) of 5.99.

In the case of `CC(C)[C@@H]1[C@H](OC(=O)N[C@@H](Cc2ccccc2)[C@H](O)CN2C[C@H]3CCCC[C@H]3CC2C(=O)NC(C)(C)C)CCS1(=O)=O` (stereo partly drawn) [(2R,3R)-1,1-dioxo-2-(propan-2-yl)--thiolan-3-yl N-[(2S,3R)-4-[(4aS,8aS)-3-(tert-butylcarbamoyl)-decahydroisoquinolin-2-yl]-3-hydroxy-1-phenylbutan-2-yl]carbamate], the pIC50 was 8.52.

`CC(C)C[C@@H]1[C@H](OC(=O)N[C@@H](Cc2ccccc2)[C@H](O)CN2C[C@H]3CCCC[C@H]3CC2C(=O)NC(C)(C)C)CCS1(=O)=O` (stereo partly drawn) [(2R,3R)-2-(2-methylpropyl)-1,1-dioxo--thiolan-3-yl N-[(2S,3R)-4-[(4aS,8aS)-3-(tert-butylcarbamoyl)-decahydroisoquinolin-2-yl]-3-hydroxy-1-phenylbutan-2-yl]carbamate] gave a negative-log IC50 (pIC50) of 7.52.

Turning to `CC[C@@H]1[C@H](OC(=O)N[C@@H](Cc2ccccc2)[C@H](O)CN2C[C@H]3CCCC[C@H]3CC2C(=O)NC(C)(C)C)CCS1(=O)=O` (stereo partly drawn) [(2R,3R)-2-ethyl-1,1-dioxo--thiolan-3-yl N-[(2S,3R)-4-[(4aS,8aS)-3-(tert-butylcarbamoyl)-decahydroisoquinolin-2-yl]-3-hydroxy-1-phenylbutan-2-yl]carbamate], the pIC50 is 7.88. Against the preceding molecule, the pIC50 is 0.36 log units higher.

For `C[C@H]1OCC[C@H]1OC(=O)N[C@@H](Cc1ccccc1)[C@H](O)CN1C[C@H]2CCCC[C@H]2CC1C(=O)NC(C)(C)C` (stereo partly drawn) [(2R,3R)-2-methyloxolan-3-yl N-[(2S,3R)-4-[(4aS,8aS)-3-(tert-butylcarbamoyl)-decahydroisoquinolin-2-yl]-3-hydroxy-1-phenylbutan-2-yl]carbamate], the pIC50 is 6.77.

`CC(C)C[C@H]1[C@@H](OC(=O)N[C@@H](Cc2ccccc2)[C@H](O)CN2C[C@H]3CCCC[C@H]3CC2C(=O)NC(C)(C)C)CCS1(=O)=O` (stereo partly drawn) [(2S,3S)-2-(2-methylpropyl)-1,1-dioxo--thiolan-3-yl N-[(2S,3R)-4-[(4aS,8aS)-3-(tert-butylcarbamoyl)-decahydroisoquinolin-2-yl]-3-hydroxy-1-phenylbutan-2-yl]carbamate] showed a negative-log IC50 (pIC50) of 7.92.

`CC[C@H]1[C@@H](OC(=O)N[C@@H](Cc2ccccc2)[C@H](O)CN2C[C@H]3CCCC[C@H]3CC2C(=O)NC(C)(C)C)CCS1(=O)=O` (stereo partly drawn) [(2S,3S)-2-ethyl-1,1-dioxo--thiolan-3-yl N-[(2S,3R)-4-[(4aS,8aS)-3-(tert-butylcarbamoyl)-decahydroisoquinolin-2-yl]-3-hydroxy-1-phenylbutan-2-yl]carbamate] gave a negative logarithm of the IC50 (pIC50) of 8.27.

Regarding `C[C@H]1[C@@H](OC(=O)N[C@@H](Cc2ccccc2)[C@H](O)CN2C[C@H]3CCCC[C@H]3CC2C(=O)NC(C)(C)C)CCS1(=O)=O` (stereo partly drawn) [(2S,3S)-2-methyl-1,1-dioxo--thiolan-3-yl N-[(2S,3R)-4-[(4aS,8aS)-3-(tert-butylcarbamoyl)-decahydroisoquinolin-2-yl]-3-hydroxy-1-phenylbutan-2-yl]carbamate], the pIC50 is 7.94.

The molecule `C[C@@H]1OCC[C@@H]1OC(=O)N[C@@H](Cc1ccccc1)[C@H](O)CN1C[C@H]2CCCC[C@H]2CC1C(=O)NC(C)(C)C` (stereo partly drawn) [(2S,3S)-2-methyloxolan-3-yl N-[(2S,3R)-4-[(4aS,8aS)-3-(tert-butylcarbamoyl)-decahydroisoquinolin-2-yl]-3-hydroxy-1-phenylbutan-2-yl]carbamate] showed a negative logarithm of the IC50 (pIC50) of 7.28.

Turning to `CC(C)(C)NC(=O)C1C[C@@H]2CCCC[C@@H]2CN1C[C@@H](O)[C@H](Cc1ccccc1)NC(=O)O[C@@H]1CCS(=O)(=O)C1` (stereo partly drawn) [(3R)-1,1-dioxo--thiolan-3-yl N-[(2S,3R)-4-[(4aS,8aS)-3-(tert-butylcarbamoyl)-decahydroisoquinolin-2-yl]-3-hydroxy-1-phenylbutan-2-yl]carbamate], the pIC50 was 6.85. Against the preceding molecule, the pIC50 is 0.43 log units lower.

As for `CC(C)(C)NC(=O)C1C[C@@H]2CCCC[C@@H]2CN1C[C@@H](O)[C@H](Cc1ccccc1)NC(=O)O[C@H]1CCS(=O)(=O)C1` (stereo partly drawn) [(3S)-1,1-dioxo--thiolan-3-yl N-[(2S,3R)-4-[(4aS,8aS)-3-(tert-butylcarbamoyl)-decahydroisoquinolin-2-yl]-3-hydroxy-1-phenylbutan-2-yl]carbamate], the pIC50 is 7.12.

With `CC(C)[C@H]1[C@@H](OC(=O)N[C@@H](Cc2ccccc2)[C@H](O)CN2C[C@H]3CCCC[C@H]3CC2C(=O)NC(C)(C)C)CCS1(=O)=O` (stereo partly drawn) [hydroxyethylene isostere], the pIC50 is 7.96.

Molecule `C[C@@H]1[C@H](OC(=O)N[C@@H](Cc2ccccc2)[C@H](O)CN2C[C@H]3CCCC[C@H]3CC2C(=O)NC(C)(C)C)CCS1(=O)=O` (stereo partly drawn) [hydroxyethylene isostere] showed a pIC50 of 7.65.

By pIC50 is commonly meant the negative decadic logarithm of the IC50, by convention in mol/L.
